This assay deals with MRP1 cells, doxorubicin viability shift, 10 uM compound. The experiment in a line: doxorubicin EC50 increase in MRP-1 cells, dose response, cell-based, doxorubicin EC50 shift (AID 844). As to conditions: for EC50: measured here: doxorubicin EC50 with compound.

Active and inactive are the calls of the source. The rule behind the calls is not given here.

Turning to `O=C(NN1C(=O)/C(=C\c2cccnc2)SC1=S)C(c1ccccc1)c1ccccc1`, the fold increase in Dox EC50 is 0.84 (inactive) and the EC50 was 4.56 µM.
For the compound `CCCN1C(=O)/C(=N\OCC(=O)Nc2ccc(C(C)C)cc2)c2ccccc21`, the fold increase in Dox EC50 was 0.74 (inactive) and the EC50 is 3.99 µM.
In the same order, the values of `COc1ccc(NC(=O)Cn2cc(C(=O)c3ccco3)c3ccccc32)cc1` are 0.88 (inactive) and 4.74 µM.
Take `CCOc1ccccc1N(C(=O)c1snc(C(N)=O)c1N)C(C(=O)NCCC(C)C)c1ccco1` (configuration not stated): the fold increase in Dox EC50 is 0.3 (inactive) and the EC50 is 1.62 µM.
In the same order, the values of `CC1=NN(C(=O)c2ccc(Cn3nc(C)c(Br)c3C)cc2)C(O)(C(F)(F)F)C1` (configuration not stated) are 1.15 (inactive) and 6.18 µM.
The like results for `COc1cccc(-c2csc(NC(=O)C3CC3)n2)c1` were, in that order, 0.84 (inactive) and 4.55 µM.
In the same order, the values of `Cc1cccc(Nc2nnc(SCC(=O)Nc3cccnc3Cl)s2)c1` are 0.61 (inactive) and 3.3 µM.
As for `CCNc1ccc(C(=O)OCC(=O)c2cc(C)n(Cc3ccc4c(c3)OCO4)c2C)cc1[N+](=O)[O-]`, the fold increase in Dox EC50 was 1.06 (inactive) and the 50% effective concentration (EC50) was 5.74 µM.
The like results for `Cc1ccc(-c2nnn(CC(=O)N(c3ccccc3F)C(C(=O)NCC3CCCO3)c3c[nH]c4ccccc34)n2)cc1` (configuration not stated) were, in that order, 0.5 (inactive) and 2.67 µM.
`COc1cccc(/C=N/NC(=O)C(=O)NCc2ccco2)c1O`: the fold increase in Dox EC50 was 0.65 (inactive) and the EC50 came to 3.54 µM.
Turning to `O=C(c1ccc(COc2ccc(Cl)cc2)o1)N1N=C(C(F)F)CC1(O)C(F)F` (configuration not stated), the fold increase in Dox EC50 is 1.44 (inactive) and the EC50 was 7.77 µM.
For `Cn1cc(Br)c(C(=O)NNC(=O)c2ccc(Br)cc2)n1`, the fold increase in Dox EC50 is 0.98 (inactive) and the EC50 came out at 5.26 µM.
In the same order, the values of `N#Cc1nc(COc2ccc(Br)cc2)oc1N1CCCCCC1` are 0.78 (inactive) and 4.21 µM.
The like results for `CCOC(=O)c1csc(NC(=O)c2ccccc2)n1` were, in that order, 0.86 (inactive) and 4.65 µM.
In the same order, the values of `CC(C)CCOc1ncnc2c1sc1nc3c(cc12)CSC(C)(C)C3` are 0.51 (inactive) and 2.76 µM.
Regarding `O=C(CSCc1ccc(Cl)cc1)N1CCN(Cc2ccc3c(c2)OCO3)CC1`, the fold increase in Dox EC50 was 0.77 (inactive) and the EC50 was 4.18 µM.
In the same order, the values of `Brc1ccc(CSc2ncn[nH]2)cc1` are 1 (inactive) and 5.39 µM.
The like results for `COc1ccc(C(=O)NCCn2cc(SCC(=O)Nc3nnc(C)s3)c3ccccc32)cc1` were, in that order, 0.5 (inactive) and 2.72 µM.
The like results for `CCC1SC2=NC(C)=C(C(=O)OC)C(c3cccs3)N2C1=O` (configuration not stated) were, in that order, 1.1 (inactive) and 5.94 µM.
Turning to `COc1ccc(/C=N/Nc2cc(C)nc(-n3nc(C)cc3C)n2)cc1`, the fold increase in Dox EC50 was 0.12 (inactive) and the half-maximal effective concentration (EC50) came out at 0.656 µM.
The like results for `O=C(NNC(=O)c1cccc(S(=O)(=O)N2CCN(c3ccccc3)CC2)c1)c1ccc(Cl)cc1` were, in that order, 1.47 (inactive) and 7.95 µM.
Regarding `O=C(c1ccco1)N1CCN=C1SCc1ccc(F)cc1`, the fold increase in Dox EC50 was 0.87 (inactive) and the 50% effective concentration (EC50) stood at 4.71 µM.
In the same order, the values of `O=C(Nc1cccn(Cc2c(Cl)cccc2Cl)c1=O)c1c(Cl)cccc1Cl` are 1.07 (inactive) and 5.79 µM.
Regarding `Cc1cc(C(=O)OCC(=O)Nc2ccc(F)c(F)c2)c(C)o1`, the fold increase in Dox EC50 was 1.76 and the EC50 came out at 9.53 µM.
In the case of `Cc1ccc(OCc2nc(-c3ccc(Cl)cc3)n[nH]2)cc1`, the fold increase in Dox EC50 was 0.79 (inactive) and the EC50 was found to be 4.24 µM.
For the compound `Cc1ccc(/C=C2\SC(=S)N(CCCC(=O)Nc3ccccn3)C2=O)cc1`, the fold increase in Dox EC50 is 0.82 (inactive) and the concentration giving a half-maximal response (EC50) was 4.44 µM.
The like results for `O=C(CSc1ncn[nH]1)NC12CC3CC(CC(C3)C1)C2` were, in that order, 0.64 (inactive) and 3.43 µM.
In the same order, the values of `O=C1NC(=Nc2ccccc2)SC1Cc1cccc(Cl)c1Cl` (configuration not stated) are 1.21 (inactive) and 6.54 µM.
In the same order, the values of `c1ccc(-n2ncc3c(NCc4cccnc4)ncnc32)cc1` are 0.57 (inactive) and 3.09 µM.
Regarding `O=C1CC(N2CCN(c3nc4ccccc4s3)CC2)C(=O)N1c1ccc(F)cc1` (configuration not stated), the fold increase in Dox EC50 is 1.18 (inactive) and the EC50 worked out at 6.38 µM.
In the same order, the values of `Cc1ccc(NC(=O)CSc2nnc(C)n2-c2ccccc2)cc1` are 1.61 and 8.71 µM.
`O=C(CCNC(=O)Cn1ccc2ccccc2c1=O)NCCc1ccccc1Cl`: the fold increase in Dox EC50 is 1.14 (inactive) and the EC50 came out at 6.15 µM.
In the same order, the values of `O=C(/C(=C/O)N=Nc1ccccc1)c1ccncc1` are 1.4 (inactive) and 7.54 µM.
The like results for `O=C1CC(N2CCCN(C3CC(=O)N(c4ccc(F)cc4)C3=O)CC2)C(=O)N1c1ccc(F)cc1` (configuration not stated) were, in that order, 1.17 (inactive) and 6.34 µM.
The like results for `CCOC(=O)c1ccc(N2CN=C3SCC(=O)N3C2)cc1` were, in that order, 0.3 (inactive) and 1.6 µM.
For the compound `O=C(CC1SC(=O)N(c2ccccc2)C1=O)Nc1ccccc1` (configuration not stated), the fold increase in Dox EC50 was 1.19 (inactive) and the EC50 came out at 6.42 µM.
The like results for `CCCN1C(=O)/C(=N\OCC(=O)NC23CC4CC(CC(C4)C2)C3)c2ccccc21` were, in that order, 1.01 (inactive) and 5.43 µM.
In the same order, the values of `O=C1c2ccsc2SCCN1Cc1c(Cl)cccc1Cl` are 1.19 (inactive) and 6.43 µM.
As for `Cc1cc(C)cc(-c2nc(-c3ccncc3)no2)c1`, the fold increase in Dox EC50 was 0.77 (inactive) and the concentration for a half-maximal effect (EC50) is 4.13 µM.
In the same order, the values of `Cc1cc(NC(=O)CSc2nc(-c3ccccc3)c(C#N)c(=O)[nH]2)no1` are 1.51 and 8.14 µM.
Regarding `Cc1ccc(C(=O)NC(C)c2ccc(F)cc2)cc1` (configuration not stated), the fold increase in Dox EC50 is 0.68 (inactive) and the EC50 came out at 3.68 µM.
In the same order, the values of `Brc1ccc(OCc2nnc3n2CCC3)cc1` are 1.67 and 9.02 µM.
With `CC(C)N(Cc1cc2ccccc2[nH]c1=O)C(=O)C(C)(C)C`, the fold increase in Dox EC50 is 1.47 (inactive) and the concentration giving a half-maximal response (EC50) is 7.93 µM.
The like results for `CCc1nnc(NC(=O)CCC(=O)N2CCN(CCOc3ccc(C)cc3)CC2)s1` were, in that order, 1.24 (inactive) and 6.7 µM.
In the same order, the values of `OCCN=C1CCCc2c1[nH]c1ccc(Br)cc21` are 0.84 (inactive) and 4.56 µM.
In the case of `CCCC(=O)NC(=S)Nc1ccc(C(C)=O)cc1`, the fold increase in Dox EC50 is 0.46 (inactive) and the EC50 stood at 2.48 µM.

Broadly, the EC50 is the concentration at which the effect is half-maximal.

The record behind these values is PubChem BioAssay AID844 (SRMLSC, 2007).
